# Test system: Histomonas meleagridis
# Experiment: Growth and viability of in vitro cultivated Histomonas meleagridis
# Assay type: cell-based
# Conditions: for Histomonas meleagridis cells counted: extrudate corresponding to 200 μg tetra-hydro-iso-α-acid/ml, dimetridazole 400 μg/ml
# Experimental: The effect of a tetra-hydro-iso-α-acids milled extrudate on the growth of Histomonas meleagridis in vitro was investigated. Therefore, a milled extrudate of tetra-hydro-iso-α-acids (corresponding to an amount of 200 μg tetra-hydro-iso-α-acid/ml), a positive control (dimetridazole, concentration of 400 μg/ml) and a negative control (distilled water without addition of any substance) were used. Histomonas meleagridis cells were counted before and after 24, 48 and 72 hours of incubation.
compound,measurement,setting,value
"Cc1ncc([N+](=O)[O-])n1C [Dimetridazole, dimetridazole]",Histomonas meleagridis cells counted,0 h (before incubation),1 × 10^5
same,Histomonas meleagridis cells counted,24 h of incubation,0
same,Histomonas meleagridis cells counted,48 h of incubation,0
same,Histomonas meleagridis cells counted,72 h of incubation,0
same,Effect on Histomonas meleagridis cells (in words),"in vitro, versus negative control",total reduction

# From US20250262262A1, “a-ACID AND/OR B-ACID BASED COPOSITIONS FROM HUMULUS FOR USE IN A HUMAN AND/OR VETERINARY APPLICATION” (Orotech NV, priority 2022, published 2025)
